Assay results published in article PMC11206519, “Multi-Endpoint Toxicological Assessment of Chrysin Loaded Oil-in-Water Emulsion System in Different Biological Models” (Nanomaterials, 2024).
Read-outs that look alike come from different tables or passages of the source.

What was measured:
3T3-L1 = test: MTT cytotoxicity assay; assay type: cell-based; settings: Mus musculus, 48 h
Experimental: (§1) RAW 264.7 (murine macrophage-like cell), 3T3-L1 adipocyte (murine adipocyte), HEK293 (human embryonic kidney cell), and LX-2 (human hepatic stellate cell) were obtained from American Type Culture Collection (ATCC, Manassas, VA, USA). RAW 264.7 macrophages were cultured as a suspension culture in an ultra-low attachment culture dish, whereas the others were cultured as adherent cells in a cell culture flask. The cells were grown in Dulbecco’s Modified Eagle Medium (DMEM) with L-glutamine, supplemented with 10% fetal bovine serum (FBS) (RAW 264.7, HEK293, and LX-2) or 10% fetal calf serum (FCS) (3T3-L1) and 1% penicillin under 5% CO2, at 37 °C. […] Blank-ES was used as a vehicle control. The amount of blank-ES was equal to chrysin-ES amount that was used for the treatment. The cytotoxicity of chrysin, chrysin-ES, and blank-ES in each cell was determined using an MTT assay. […] Then, the solution was gently removed, and the formazan crystal was dissolved with dimethyl sulfoxide (DMSO). The soluble formazan was measured using a microplate reader (Bio-TEK Synergy Hybrid Reader H4) at 540 nm. The cell viability is directly related to the absorbance of formazan. The percentage of cell viability was calculated using the following equation. Cell viability (%) = (Absorbance (sample))/(Absorbance (control)) × 100

HEK-293 = test: MTT cytotoxicity assay; assay type: cell-based; settings: Homo sapiens, HEK293, 48 h
Experimental: as §1

LX-2 = test: MTT cytotoxicity assay; assay type: cell-based; settings: Homo sapiens, LX-2, 48 h
Experimental: as §1

S. typhimurium TA 100 = test: Ames test, mutagenicity; assay type: cell-based, Salmonella Typhimurium
Experimental: (§2) The S. typhimurium strains TA 98 and TA 100 were used to detect frameshift and base-pair mutations, respectively. […] Then, they were poured onto minimal glucose agar containing a trace amount of histidine, following incubation at 37 °C for 48 h. Then, the revertant colonies were counted and compared with the negative control. If the number of revertant colonies in the tested sample treatment is at least twice that of the negative control (spontaneous revertant colonies), it is considered a mutagen.

S. typhimurium TA 98 = test: Ames test, mutagenicity; assay type: cell-based, Salmonella Typhimurium
Experimental: as §2

S. typhimurium TA98 = test: Ames test, anti-mutagenicity
Experimental: Furthermore, the anti-mutagenicity of the samples was performed by a similar procedure, as mentioned above. […] The percentage inhibition (decrease revertant colony number) was calculated as in the following equation:Anti-mutagenicity (%) = [1 − (b/a)] × 100 • a = revertant colony number induced via standard mutagen (positive control). • b = revertant colony number induced by standard mutagen in the presence of each sample treatment.
The percent of inhibition between 0–20%, 21–40%, 41–60%, and higher than 60% indicate negligible, weak, moderate, and strong anti-mutagenicity, respectively.

[1] = decreases cell viability by 20%
[2] = decreases cell viability by 50%
[3] = AF-2 0.1 µg/plate, −S9, 5.7 µM/plate
[4] = AF-2 0.1 µg/plate, −S9, 11.4 µM/plate
[5] = AF-2 0.1 µg/plate, −S9, 22.8 µM/plate
[6] = PhIP 0.1 µg/plate, +S9, 0.35 µM/plate
[7] = PhIP 0.1 µg/plate, +S9, 0.70 µM/plate
[8] = PhIP 0.1 µg/plate, +S9, 1.40 µM/plate
[9] = PhIP 0.1 µg/plate, +S9, 2.85 µM/plate
[10] = PhIP 0.1 µg/plate, +S9, 5.70 µM/plate

O=c1cc(-c2ccccc2)oc2cc(O)cc(O)c12 [Chrysin, 5,7-dihydroxyflavone]
IC20 (3T3-L1; [1]): > 90 µM
IC50 (3T3-L1; [2]): > 90 µM
IC20 (HEK-293; [1]): ~53 µM
IC50 (HEK-293; [2]): > 90 µM
IC20 (LX-2; [1]): ~52 µM
IC50 (LX-2; [2]): > 90 µM
Number of Revertant Colonies (S. typhimurium TA 100; +S9, 5.7 µM/plate): 136 ± 12
Number of Revertant Colonies (S. typhimurium TA 100; +S9, 11.4 µM/plate): 131 ± 7
Number of Revertant Colonies (S. typhimurium TA 100; +S9, 22.8 µM/plate): 136 ± 8
Number of Revertant Colonies (S. typhimurium TA 100; −S9, 5.7 µM/plate): 120 ± 6
Number of Revertant Colonies (S. typhimurium TA 100; −S9, 11.4 µM/plate): 115 ± 7
Number of Revertant Colonies (S. typhimurium TA 100; −S9, 22.8 µM/plate): 117 ± 4
Number of Revertant Colonies (S. typhimurium TA 98; +S9, 5.7 µM/plate): 27 ± 7
Number of Revertant Colonies (S. typhimurium TA 98; +S9, 11.4 µM/plate): 26 ± 8
Number of Revertant Colonies (S. typhimurium TA 98; +S9, 22.8 µM/plate): 27 ± 8
mutagenicity in the Ames test (S. typhimurium TA 98; TA98 and TA100, presence and absence of metabolic activation): did not induce mutations
Number of Revertant Colonies (S. typhimurium TA 98; −S9, 5.7 µM/plate): 22 ± 6
Number of Revertant Colonies (S. typhimurium TA 98; −S9, 11.4 µM/plate): 23 ± 5
Number of Revertant Colonies (S. typhimurium TA 98; −S9, 22.8 µM/plate): 23 ± 7
Inhibitory Classification (S. typhimurium TA98; [3]): Mild
Number of Revertant Colonies (S. typhimurium TA98; [3]): 166 ± 23
Inhibitory Classification (S. typhimurium TA98; [4]): Moderate
Number of Revertant Colonies (S. typhimurium TA98; [4]): 140 ± 39
Inhibitory Classification (S. typhimurium TA98; [5]): Mild
Number of Revertant Colonies (S. typhimurium TA98; [5]): 164 ± 56
Inhibitory Classification (S. typhimurium TA98; [6]): Moderate
Number of Revertant Colonies (S. typhimurium TA98; [6]): 214 ± 9
Inhibitory Classification (S. typhimurium TA98; [7]): Strong
Number of Revertant Colonies (S. typhimurium TA98; [7]): 153 ± 10
Inhibitory Classification (S. typhimurium TA98; [8]): Strong
Number of Revertant Colonies (S. typhimurium TA98; [8]): 77 ± 12
Inhibitory Classification (S. typhimurium TA98; [9]): Strong
Number of Revertant Colonies (S. typhimurium TA98; [9]): 71 ± 9
Inhibitory Classification (S. typhimurium TA98; [10]): Strong
Number of Revertant Colonies (S. typhimurium TA98; [10]): 45 ± 18
inhibition at […] (S. typhimurium TA98; Salmonella enterica, TYPHIMURIUM, read-out: % mutagenic inhibition, AF-2 0.1 µg/plate, −S9, 5.7 µM/plate): 34%
inhibition at 11.4 µM (S. typhimurium TA98; Salmonella enterica, TYPHIMURIUM, read-out: % mutagenic inhibition, AF-2 0.1 µg/plate, −S9, 11.4 µM/plate): 45%
inhibition at 22.8 µM (S. typhimurium TA98; Salmonella enterica, TYPHIMURIUM, read-out: % mutagenic inhibition, AF-2 0.1 µg/plate, −S9, 22.8 µM/plate): 35%
inhibition at 0.35 µM (S. typhimurium TA98; Salmonella enterica, TYPHIMURIUM, read-out: % mutagenic inhibition, PhIP 0.1 µg/plate, +S9, 0.35 µM/plate): 46%
inhibition at 0.7 µM (S. typhimurium TA98; Salmonella enterica, TYPHIMURIUM, read-out: % mutagenic inhibition, PhIP 0.1 µg/plate, +S9, 0.70 µM/plate): 62%
inhibition at 1.4 µM (S. typhimurium TA98; Salmonella enterica, TYPHIMURIUM, read-out: % mutagenic inhibition, PhIP 0.1 µg/plate, +S9, 1.40 µM/plate): 81%
inhibition at 2.85 µM (S. typhimurium TA98; Salmonella enterica, TYPHIMURIUM, read-out: % mutagenic inhibition, PhIP 0.1 µg/plate, +S9, 2.85 µM/plate): 82%
inhibition at […] (S. typhimurium TA98; Salmonella enterica, TYPHIMURIUM, read-out: % mutagenic inhibition, PhIP 0.1 µg/plate, +S9, 5.70 µM/plate): 89%
